Calls of active or inactive are those of the source. No cut-off for these calls is given here.
molecular target: Acetylcholinesterase (Electrophorus electricus, UniProt O42275); experiment: Inhibition of electric eel AChE by spectrophotometric-based Ellman's method; conditions: not given
Sequence (O42275 whole entry): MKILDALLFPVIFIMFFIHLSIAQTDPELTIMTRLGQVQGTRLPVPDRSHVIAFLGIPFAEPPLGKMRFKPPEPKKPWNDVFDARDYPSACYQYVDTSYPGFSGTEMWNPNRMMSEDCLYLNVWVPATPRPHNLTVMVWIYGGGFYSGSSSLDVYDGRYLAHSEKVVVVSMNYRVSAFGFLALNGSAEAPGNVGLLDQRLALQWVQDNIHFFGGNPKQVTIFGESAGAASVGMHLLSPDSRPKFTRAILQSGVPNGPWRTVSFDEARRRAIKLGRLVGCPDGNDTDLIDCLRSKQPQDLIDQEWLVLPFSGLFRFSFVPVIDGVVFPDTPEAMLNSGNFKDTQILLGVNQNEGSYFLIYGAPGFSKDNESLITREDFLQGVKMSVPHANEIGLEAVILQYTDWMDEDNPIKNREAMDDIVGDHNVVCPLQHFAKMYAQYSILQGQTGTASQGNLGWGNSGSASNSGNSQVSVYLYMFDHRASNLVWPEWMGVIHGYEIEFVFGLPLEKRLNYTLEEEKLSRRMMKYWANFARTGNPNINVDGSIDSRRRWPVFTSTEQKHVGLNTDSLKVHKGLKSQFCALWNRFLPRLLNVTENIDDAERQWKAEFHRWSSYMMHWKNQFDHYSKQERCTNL

SMILES	IC50
CC(C)COC(=O)N[C@H](C)c1nc2ccc(F)cc2s1	12.9 µM
C[C@@H](NC(=O)OCC(F)(F)F)c1nc2ccc(F)cc2s1	40.5 µM
CCCOC(=O)N[C@H](C)c1nc2ccc(F)cc2s1	13.1 µM
CCOC(=O)N[C@H](C)c1nc2ccc(F)cc2s1	6.06 µM
C[C@@H](NC(=O)OC(C)(C)C)c1nc2ccc(F)cc2s1	10.5 µM
C[C@@H](NC(=O)OCCCCl)c1nc2ccc(F)cc2s1	80.5 µM
C[C@@H](NC(=O)OCC(F)(F)C(F)F)c1nc2ccc(F)cc2s1	6.75 µM
CCCCOC(=O)N[C@H](C)c1nc2ccc(F)cc2s1	9.26 µM
COCCOC(=O)N[C@H](C)c1nc2ccc(F)cc2s1	56.2 µM
C[C@@H](NC(=O)OCC(F)(F)C(F)(F)C(F)(F)F)c1nc2ccc(F)cc2s1	81.9 µM
COC(=O)N[C@H](C)c1nc2ccc(F)cc2s1	13.6 µM
C[C@@H](NC(=O)OCC(Cl)(Cl)Cl)c1nc2ccc(F)cc2s1	92.2 µM
C[C@@H](NC(=O)OCC(F)(F)Cl)c1nc2ccc(F)cc2s1	8.14 µM
CC(C)OC(=O)N[C@H](C)c1nc2ccc(F)cc2s1	16.5 µM
C[C@@H](NC(=O)OCCBr)c1nc2ccc(F)cc2s1	11.4 µM
C[C@@H](NC(=O)OCCCl)c1nc2ccc(F)cc2s1	12.7 µM

system: not listed separately; experiment: Cytotoxicity against human Jurkat cells assessed as cell viability at 10 uM after 48 hrs by XTT assay relative to control; assay type: cell-based; conditions: read-out: Activity

SMILES	viability at 48 h, 10 µM
CCOC(=O)N[C@H](C)c1nc2ccc(F)cc2s1	87.6%
C[C@@H](NC(=O)OCC(F)(F)C(F)F)c1nc2ccc(F)cc2s1	85.3%
CCCCOC(=O)N[C@H](C)c1nc2ccc(F)cc2s1	80.2%
C[C@@H](NC(=O)OCC(F)(F)Cl)c1nc2ccc(F)cc2s1	86.6%

molecular target: Cholinesterase (Equus caballus, UniProt P81908); experiment: Inhibition of equine serum BChE by spectrophotometric-based Ellman's method; conditions: not given
Sequence (P81908 whole entry): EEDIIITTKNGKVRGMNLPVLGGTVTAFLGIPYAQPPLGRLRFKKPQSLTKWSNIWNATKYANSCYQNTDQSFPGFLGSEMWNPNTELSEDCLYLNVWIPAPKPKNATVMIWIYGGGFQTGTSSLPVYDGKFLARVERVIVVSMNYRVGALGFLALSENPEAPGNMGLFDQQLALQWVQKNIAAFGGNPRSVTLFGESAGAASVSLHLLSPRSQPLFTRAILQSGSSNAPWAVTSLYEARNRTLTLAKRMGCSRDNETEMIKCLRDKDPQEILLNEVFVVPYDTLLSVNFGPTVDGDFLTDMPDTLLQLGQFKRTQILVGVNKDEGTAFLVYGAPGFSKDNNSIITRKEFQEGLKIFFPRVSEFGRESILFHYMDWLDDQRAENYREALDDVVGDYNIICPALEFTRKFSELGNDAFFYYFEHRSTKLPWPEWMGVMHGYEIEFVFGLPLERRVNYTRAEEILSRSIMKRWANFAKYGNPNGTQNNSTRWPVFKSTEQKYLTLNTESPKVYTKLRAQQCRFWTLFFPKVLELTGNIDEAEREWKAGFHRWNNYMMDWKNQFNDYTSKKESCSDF

SMILES	IC50
CC(C)COC(=O)N[C@H](C)c1nc2ccc(F)cc2s1	40.2 µM
C[C@@H](NC(=O)OCC(F)(F)F)c1nc2ccc(F)cc2s1	63.4 µM
CCCOC(=O)N[C@H](C)c1nc2ccc(F)cc2s1	34.6 µM
CCOC(=O)N[C@H](C)c1nc2ccc(F)cc2s1	20.1 µM
C[C@@H](NC(=O)OC(C)(C)C)c1nc2ccc(F)cc2s1	23.1 µM
C[C@@H](NC(=O)OCCCCl)c1nc2ccc(F)cc2s1	38.8 µM
C[C@@H](NC(=O)OCC(F)(F)C(F)F)c1nc2ccc(F)cc2s1	25 µM
CCCCOC(=O)N[C@H](C)c1nc2ccc(F)cc2s1	40.9 µM
COCCOC(=O)N[C@H](C)c1nc2ccc(F)cc2s1	66.3 µM
C[C@@H](NC(=O)OCC(F)(F)C(F)(F)C(F)(F)F)c1nc2ccc(F)cc2s1	74.5 µM
COC(=O)N[C@H](C)c1nc2ccc(F)cc2s1	90.3 µM
C[C@@H](NC(=O)OCC(Cl)(Cl)Cl)c1nc2ccc(F)cc2s1	8.31 µM
C[C@@H](NC(=O)OCC(F)(F)Cl)c1nc2ccc(F)cc2s1	25.6 µM
CC(C)OC(=O)N[C@H](C)c1nc2ccc(F)cc2s1	32.7 µM
C[C@@H](NC(=O)OCCBr)c1nc2ccc(F)cc2s1	38.4 µM
C[C@@H](NC(=O)OCCCl)c1nc2ccc(F)cc2s1	41.2 µM

system: SK-BR-3; experiment: Cytotoxicity against human SK-BR-3 cells assessed as decrease in cell proliferation index at 250 uM after 91 hrs by real-time cell analysis; assay type: cell-based; conditions: sk-br-3, 91 h

SMILES	Activity
C[C@@H](NC(=O)OCC(F)(F)C(F)F)c1nc2ccc(F)cc2s1	Toxic

molecular target: Acetylcholinesterase (Electrophorus electricus) (UniProt O42275); experiment: Pseudo-irreversible inhibition of electric eel AChE at 5 to 9 uM by spectrophotometric-based Ellman's method; conditions: not given
Sequence (O42275 24-633 limits assumed): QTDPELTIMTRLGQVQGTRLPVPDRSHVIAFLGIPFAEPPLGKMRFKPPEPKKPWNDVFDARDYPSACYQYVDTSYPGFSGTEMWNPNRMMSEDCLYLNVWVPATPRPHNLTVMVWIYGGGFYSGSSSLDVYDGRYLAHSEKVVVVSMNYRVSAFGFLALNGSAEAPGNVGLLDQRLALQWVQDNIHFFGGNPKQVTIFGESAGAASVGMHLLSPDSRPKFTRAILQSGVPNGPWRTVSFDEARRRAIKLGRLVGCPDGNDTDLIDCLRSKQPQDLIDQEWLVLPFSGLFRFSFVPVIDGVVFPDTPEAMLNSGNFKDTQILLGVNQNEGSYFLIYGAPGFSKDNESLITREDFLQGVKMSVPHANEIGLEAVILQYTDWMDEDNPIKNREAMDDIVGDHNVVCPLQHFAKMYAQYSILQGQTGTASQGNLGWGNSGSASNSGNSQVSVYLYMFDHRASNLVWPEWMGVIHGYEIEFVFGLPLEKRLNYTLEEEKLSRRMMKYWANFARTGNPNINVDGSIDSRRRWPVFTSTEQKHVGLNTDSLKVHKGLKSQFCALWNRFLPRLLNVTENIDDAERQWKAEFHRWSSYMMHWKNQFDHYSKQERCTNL

SMILES	inhibition
C[C@@H](NC(=O)OCC(F)(F)C(F)F)c1nc2ccc(F)cc2s1	Active

molecular target: Acetylcholinesterase (Electrophorus electricus) (UniProt O42275); experiment: Pseudo-irreversible inhibition of electric eel AChE at 4 to 8 uM by spectrophotometric-based Ellman's method; conditions: not given

SMILES	inhibition
CCOC(=O)N[C@H](C)c1nc2ccc(F)cc2s1	Active

system: not listed separately; experiment: n-Octanol-water partition coefficient, log P of the compound after 15 mins by shake flask method; assay type: physicochemical; conditions: not given

SMILES	logP at 0.25 h
CC(C)COC(=O)N[C@H](C)c1nc2ccc(F)cc2s1	4.24
C[C@@H](NC(=O)OCC(F)(F)F)c1nc2ccc(F)cc2s1	2.69
CCCOC(=O)N[C@H](C)c1nc2ccc(F)cc2s1	4.56
CCOC(=O)N[C@H](C)c1nc2ccc(F)cc2s1	4.2
C[C@@H](NC(=O)OC(C)(C)C)c1nc2ccc(F)cc2s1	4.41
C[C@@H](NC(=O)OCCCCl)c1nc2ccc(F)cc2s1	1.92
C[C@@H](NC(=O)OCC(F)(F)C(F)F)c1nc2ccc(F)cc2s1	2.92
CCCCOC(=O)N[C@H](C)c1nc2ccc(F)cc2s1	4.82
COCCOC(=O)N[C@H](C)c1nc2ccc(F)cc2s1	3.35
C[C@@H](NC(=O)OCC(F)(F)C(F)(F)C(F)(F)F)c1nc2ccc(F)cc2s1	3.2
COC(=O)N[C@H](C)c1nc2ccc(F)cc2s1	2.5
C[C@@H](NC(=O)OCC(Cl)(Cl)Cl)c1nc2ccc(F)cc2s1	2.34
C[C@@H](NC(=O)OCC(F)(F)Cl)c1nc2ccc(F)cc2s1	2.82
CC(C)OC(=O)N[C@H](C)c1nc2ccc(F)cc2s1	5.33
C[C@@H](NC(=O)OCCBr)c1nc2ccc(F)cc2s1	3.17
C[C@@H](NC(=O)OCCCl)c1nc2ccc(F)cc2s1	3.09

molecular target: Acetylcholinesterase (Torpedo californica, UniProt P04058); experiment: Pseudo-irreversible inhibition of Torpedo californica AChE using acetylthiocholine as substrate by cornish bowden plot analysis; parameters: species or system Tetronarce californica; conditions: not given
Sequence (P04058 whole entry): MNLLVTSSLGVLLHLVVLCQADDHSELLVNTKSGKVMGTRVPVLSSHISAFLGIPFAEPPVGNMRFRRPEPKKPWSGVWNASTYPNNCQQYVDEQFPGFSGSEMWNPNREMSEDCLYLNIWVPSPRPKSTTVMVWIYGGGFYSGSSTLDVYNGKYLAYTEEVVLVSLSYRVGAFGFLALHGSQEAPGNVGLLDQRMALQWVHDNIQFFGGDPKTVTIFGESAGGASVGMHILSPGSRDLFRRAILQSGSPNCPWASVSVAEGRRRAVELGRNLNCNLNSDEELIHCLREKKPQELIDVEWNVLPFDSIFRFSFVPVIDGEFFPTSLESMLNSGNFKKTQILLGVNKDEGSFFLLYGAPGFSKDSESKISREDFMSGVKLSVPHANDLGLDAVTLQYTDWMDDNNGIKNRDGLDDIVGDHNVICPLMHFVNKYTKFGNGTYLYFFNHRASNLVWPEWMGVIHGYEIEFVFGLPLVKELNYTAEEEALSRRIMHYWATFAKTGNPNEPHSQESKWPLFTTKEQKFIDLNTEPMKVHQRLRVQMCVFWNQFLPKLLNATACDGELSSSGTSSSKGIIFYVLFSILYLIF

SMILES	Ki
CCN(C)C(=O)Oc1cccc([C@H](C)N(C)C)c1 [RIVASTIGMINE]	0.033 M⁻¹ s⁻¹

system: not listed separately; experiment: Cytotoxicity against human Jurkat cells assessed as cell viability at 100 uM after 48 hrs by XTT assay relative to control; assay type: cell-based; conditions: read-out: Activity

SMILES	viability at 48 h, 100 µM
CCOC(=O)N[C@H](C)c1nc2ccc(F)cc2s1	85.6%
C[C@@H](NC(=O)OCC(F)(F)C(F)F)c1nc2ccc(F)cc2s1	82.9%
CCCCOC(=O)N[C@H](C)c1nc2ccc(F)cc2s1	66.8%
C[C@@H](NC(=O)OCC(F)(F)Cl)c1nc2ccc(F)cc2s1	85.7%

system: not listed separately; experiment: Cytotoxicity against human Jurkat cells assessed as cell viability at 250 uM after 48 hrs by XTT assay relative to control; assay type: cell-based; conditions: read-out: Activity

SMILES	viability at 48 h, 250 µM
CCOC(=O)N[C@H](C)c1nc2ccc(F)cc2s1	77%
C[C@@H](NC(=O)OCC(F)(F)C(F)F)c1nc2ccc(F)cc2s1	80.3%
CCCCOC(=O)N[C@H](C)c1nc2ccc(F)cc2s1	49.5%
C[C@@H](NC(=O)OCC(F)(F)Cl)c1nc2ccc(F)cc2s1	74%

system: not listed separately; experiment: Cytotoxicity against human Jurkat cells assessed as cell viability at 1 uM after 48 hrs by XTT assay relative to control; assay type: cell-based; conditions: read-out: Activity

SMILES	viability at 48 h, 1 µM
CCOC(=O)N[C@H](C)c1nc2ccc(F)cc2s1	87.4%
C[C@@H](NC(=O)OCC(F)(F)C(F)F)c1nc2ccc(F)cc2s1	93%
CCCCOC(=O)N[C@H](C)c1nc2ccc(F)cc2s1	90.3%
C[C@@H](NC(=O)OCC(F)(F)Cl)c1nc2ccc(F)cc2s1	91.1%

molecular target: Acetylcholinesterase (Electrophorus electricus) (UniProt O42275); experiment: Potency index, ratio of rivastigmine IC50 to compound IC50 for electric eel AChE; conditions: not given

SMILES	Ratio IC50
CCOC(=O)N[C@H](C)c1nc2ccc(F)cc2s1	< 10
C[C@@H](NC(=O)OCC(F)(F)C(F)F)c1nc2ccc(F)cc2s1	< 10
CCCCOC(=O)N[C@H](C)c1nc2ccc(F)cc2s1	< 10
C[C@@H](NC(=O)OCC(F)(F)Cl)c1nc2ccc(F)cc2s1	< 10

system: SK-BR-3; experiment: Cytotoxicity against human SK-BR-3 cells assessed as decrease in cell proliferation index at 1 to 100 uM after 91 hrs by real-time cell analysis; assay type: cell-based; conditions: sk-br-3, 91 h

SMILES	Activity
C[C@@H](NC(=O)OCC(F)(F)C(F)F)c1nc2ccc(F)cc2s1	Non-toxic
CCCCOC(=O)N[C@H](C)c1nc2ccc(F)cc2s1	Non-toxic

system: not listed separately; experiment: Cytotoxicity against human Jurkat cells assessed as cell viability at 50 uM after 48 hrs by XTT assay relative to control; assay type: cell-based; conditions: read-out: Activity

SMILES	viability at 48 h, 50 µM
CCOC(=O)N[C@H](C)c1nc2ccc(F)cc2s1	87.9%
C[C@@H](NC(=O)OCC(F)(F)C(F)F)c1nc2ccc(F)cc2s1	89.3%
CCCCOC(=O)N[C@H](C)c1nc2ccc(F)cc2s1	88.7%
C[C@@H](NC(=O)OCC(F)(F)Cl)c1nc2ccc(F)cc2s1	89.6%

system: not listed separately; experiment: Selectivity ratio of IC50 for electric eel AChE to IC50 for equine serum BChE; conditions: not given

SMILES	Ratio IC50
CC(C)COC(=O)N[C@H](C)c1nc2ccc(F)cc2s1	0.32
C[C@@H](NC(=O)OCC(F)(F)F)c1nc2ccc(F)cc2s1	0.64
CCCOC(=O)N[C@H](C)c1nc2ccc(F)cc2s1	0.38
CCOC(=O)N[C@H](C)c1nc2ccc(F)cc2s1	0.3
C[C@@H](NC(=O)OC(C)(C)C)c1nc2ccc(F)cc2s1	0.46
C[C@@H](NC(=O)OCCCCl)c1nc2ccc(F)cc2s1	2.07
C[C@@H](NC(=O)OCC(F)(F)C(F)F)c1nc2ccc(F)cc2s1	0.27
CCCCOC(=O)N[C@H](C)c1nc2ccc(F)cc2s1	0.23
COCCOC(=O)N[C@H](C)c1nc2ccc(F)cc2s1	0.85
C[C@@H](NC(=O)OCC(F)(F)C(F)(F)C(F)(F)F)c1nc2ccc(F)cc2s1	1.1
COC(=O)N[C@H](C)c1nc2ccc(F)cc2s1	0.15
C[C@@H](NC(=O)OCC(Cl)(Cl)Cl)c1nc2ccc(F)cc2s1	11.1
C[C@@H](NC(=O)OCC(F)(F)Cl)c1nc2ccc(F)cc2s1	0.32
CC(C)OC(=O)N[C@H](C)c1nc2ccc(F)cc2s1	0.51
C[C@@H](NC(=O)OCCBr)c1nc2ccc(F)cc2s1	0.3
C[C@@H](NC(=O)OCCCl)c1nc2ccc(F)cc2s1	0.31

system: SK-BR-3; experiment: Cytotoxicity against human SK-BR-3 cells assessed as decrease in cell proliferation index at 250 uM by real-time cell analysis; assay type: cell-based; conditions: sk-br-3, 250 µM, TDE = time-dependent effect

SMILES	Activity
CCCCOC(=O)N[C@H](C)c1nc2ccc(F)cc2s1	tde

molecular target: Acetylcholinesterase (Electrophorus electricus) (UniProt O42275); conditions: 6 to 10 uM
Description: Pseudo-irreversible inhibition of electric eel AChE at 6 to 10 uM by spectrophotometric-based Ellman's method

SMILES	inhibition
C[C@@H](NC(=O)OCC(F)(F)Cl)c1nc2ccc(F)cc2s1	Active

Reference: ChEMBL document CHEMBL3769313, “Synthesis, structural characterization, docking, lipophilicity and cytotoxicity of 1-[(1R)-1-(6-fluoro-1,3-benzothiazol-2-yl)ethyl]-3-alkyl carbamates, novel acetylcholinesterase and butyrylcholinesterase pseudo-irreversible inhibitors” (Bioorg Med Chem, 2016)
